Laboratory results: the supplement of paper PMC10627819

Tests used:
[1] = system: B. subtilis 168; assay: fitness (endpoint OD595 vs no drug) (fraction); higher = more growth
Procedure, shortened: (§1)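 Fitness is computed from the optical density at which cultures reach stationary phase, divided by the robust mean of no-drug control wells. Any value above 1 is set to 1. Cultures started at OD595 0.01 in 384-well plates with TSB, LB Lennox or CY at 37 °C, and OD595 was read every 30 min for 14 h against a first-reading background.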

[2] = system: S. pneumoniae D39V; assay: as above
Procedure, shortened: as §1

[3] = system: B. subtilis 168; assay: Bliss interaction score (quartile over a dose matrix) (fitness difference); higher = more antagonism (negative = synergy)
Procedure, shortened: (§2)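 Fitness here means normalised growth, inferred for single drugs from the combination data. Growth was OD595 at entry into stationary phase, divided by the plate's robust no-drug mean and capped at 1. The Bliss score is observed minus expected fitness, with the expectation being the product, and its quartiles span technical, biological and donor/recipient replicates.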

[4] = system: S. aureus DSM 20231; assay: as above
Procedure, shortened: as §2

[5] = system: S. aureus Newman; assay: as above
Procedure, shortened: as §2

[6] = system: S. pneumoniae D39V; assay: as above
Procedure, shortened: as §2
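For Bliss interaction score (quartile over a dose matrix) in this document: first quartile when negative (synergy) and third quartile when positive (antagonism).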
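For fitness (endpoint OD595 vs no drug) in this document: OD595 on entry to stationary phase over no-drug wells; at most 1.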

C[C@H]1COc2c(N3CCN(C)CC3)c(F)cc3c(=O)c(C(=O)O)cn1c23 [Levofloxacin] + CN(C)C(=O)C(CCN1CCC(O)(c2ccc(Cl)cc2)CC1)(c1ccccc1)c1ccccc1 [Loperamide]
fitness, one replicate
Settings	first compound 0.001 µg/mL	first compound 0.002 µg/mL	first compound 0.0039 µg/mL	first compound 0.2 µg/mL	first compound 0.4 µg/mL	first compound 0.8 µg/mL
[1], partner 25 µg/mL	0.807	0.714	0.714	–	–	–
[1], partner 50 µg/mL	0.618	0.172	0.206	–	–	–
[1], partner 100 µg/mL	0.613	0.51	0.581	–	–	–
[2], partner 68.57 µg/mL	–	–	–	0.913	0.896	0.864

Settings	fitness
[1], first compound 0.0312 µg/mL, partner 25 µg/mL	0.0337
[1], first compound 0.0312 µg/mL, partner 50 µg/mL	0.0298
[1], first compound 0.0312 µg/mL, partner 100 µg/mL	0.0296
[1], first compound 0.0625 µg/mL, partner 25 µg/mL	0.0122
[1], first compound 0.0625 µg/mL, partner 50 µg/mL	0.0229
[1], first compound 0.0625 µg/mL, partner 100 µg/mL	0.0349
[1], first compound 0.125 µg/mL, partner 25 µg/mL	0.0335
[1], first compound 0.125 µg/mL, partner 50 µg/mL	0.0386
[1], first compound 0.125 µg/mL, partner 100 µg/mL	0.0401
[2], first compound 0.1725 µg/mL, partner 20 µg/mL	≥ 1
[2], first compound 0.1725 µg/mL, partner 40 µg/mL	≥ 1
[2], first compound 0.2 µg/mL, partner 17.14 µg/mL	0.877
[2], first compound 0.2 µg/mL, partner 34.28 µg/mL	0.9
[2], first compound 0.345 µg/mL, partner 20 µg/mL	0.998
[2], first compound 0.345 µg/mL, partner 40 µg/mL	≥ 1
[2], first compound 0.4 µg/mL, partner 17.14 µg/mL	0.901
[2], first compound 0.4 µg/mL, partner 34.28 µg/mL	0.883
[2], first compound 0.69 µg/mL, partner 20 µg/mL	0.787
[2], first compound 0.69 µg/mL, partner 40 µg/mL	0.837
[2], first compound 0.8 µg/mL, partner 34.28 µg/mL	0.642

Settings	Bliss interaction score
[3]	0.155
[4]	0.0444
[5]	0.0501
[6]	0.189

C[C@H]1COc2c(N3CCN(C)CC3)c(F)cc3c(=O)c(C(=O)O)cn1c23 [Levofloxacin] + CN(N=O)C(=O)N[C@@H](C=O)[C@@H](O)[C@H](O)[C@H](O)CO [Streptozotocin]
fitness, one replicate
Settings	first compound 0.001 µg/mL	first compound 0.002 µg/mL	first compound 0.0039 µg/mL	first compound 0.0312 µg/mL	first compound 0.0625 µg/mL	first compound 0.125 µg/mL	first compound 0.2 µg/mL	first compound 0.4 µg/mL	first compound 0.8 µg/mL
[1], partner 0.15 µg/mL	0.98	0.923	0.934	0.0317	0.0292	0.0367	–	–	–
[1], partner 0.3 µg/mL	0.96	0.948	0.886	0.0288	0.0412	0.0451	–	–	–
[1], partner 0.6 µg/mL	≥ 1	≥ 1	0.979	0.025	0.0304	0.0177	–	–	–
[2], partner 1.2 µg/mL	–	–	–	–	–	–	0.925	0.759	0.259
[2], partner 2.4 µg/mL	–	–	–	–	–	–	0.909	0.802	0.302
[2], partner 4.8 µg/mL	–	–	–	–	–	–	0.823	0.603	0.0669

fitness, [2]
Settings	first compound 0.1725 µg/mL	first compound 0.345 µg/mL	first compound 0.69 µg/mL
partner 1.2 µg/mL	0.938	0.816	0.362
partner 2.4 µg/mL	0.936	0.845	0.398
partner 4.8 µg/mL	0.952	0.841	0.44

Settings	Bliss interaction score
[3]	0.0603
[4]	-0.0228
[5]	-0.102
[6]	-0.0624

C[C@H]1COc2c(N3CCN(C)CC3)c(F)cc3c(=O)c(C(=O)O)cn1c23 [Levofloxacin] + CN[C@@H]1[C@H](O)[C@H](NC)[C@H]2O[C@@]3(O)C(=O)C[C@@H](C)O[C@H]3O[C@@H]2[C@H]1O [Spectinomycin]
fitness, one replicate
Settings	first compound 0.001 µg/mL	first compound 0.002 µg/mL	first compound 0.0039 µg/mL	first compound 0.2 µg/mL	first compound 0.4 µg/mL	first compound 0.8 µg/mL
[1], partner 2 µg/mL	0.986	0.966	0.988	–	–	–
[1], partner 4 µg/mL	0.955	0.888	≥ 1	–	–	–
[1], partner 8 µg/mL	0.99	0.912	≥ 1	–	–	–
[2], partner 4 µg/mL	–	–	–	0.96	0.868	0.446
[2], partner 8 µg/mL	–	–	–	0.9	0.804	0.508

fitness
Settings	first compound 0.0312 µg/mL	first compound 0.0625 µg/mL	first compound 0.125 µg/mL	first compound 0.1725 µg/mL	first compound 0.345 µg/mL	first compound 0.69 µg/mL
[1], partner 2 µg/mL	0.036	0.0431	0.0402	–	–	–
[1], partner 4 µg/mL	0.0347	0.0352	0.0401	–	–	–
[1], partner 8 µg/mL	0.0234	0.0342	0.0261	–	–	–
[2], partner 4 µg/mL	–	–	–	0.875	0.808	0.41
[2], partner 8 µg/mL	–	–	–	0.928	0.816	0.439
[2], partner 16 µg/mL	–	–	–	0.835	0.737	0.396

Settings	Bliss interaction score
[3]	-0.0192
[4]	0.0353
[5]	-0.0582
[6]	-0.0643

C[C@H]1COc2c(N3CCN(C)CC3)c(F)cc3c(=O)c(C(=O)O)cn1c23 [Levofloxacin] + CN1C2=CC=CC=C2N=C3C1=CC=CC3=O [Pyocyanin]
fitness, one replicate
Settings	first compound 0.001 µg/mL	first compound 0.002 µg/mL	first compound 0.0039 µg/mL	first compound 0.2 µg/mL	first compound 0.4 µg/mL	first compound 0.8 µg/mL
[1], partner 1.25 µg/mL	0.891	0.8	0.846	–	–	–
[1], partner 2.5 µg/mL	0.864	0.813	0.795	–	–	–
[1], partner 5 µg/mL	0.68	0.621	0.64	–	–	–
[2], partner 0.325 µg/mL	–	–	–	0.878	0.371	0.296
[2], partner 0.65 µg/mL	–	–	–	0.965	0.875	0.679

fitness
Settings	first compound 0.0312 µg/mL	first compound 0.0625 µg/mL	first compound 0.125 µg/mL	first compound 0.1725 µg/mL	first compound 0.345 µg/mL	first compound 0.69 µg/mL
[1], partner 1.25 µg/mL	0.0394	0.0289	0.03	–	–	–
[1], partner 2.5 µg/mL	0.0377	0.0408	0.0364	–	–	–
[1], partner 5 µg/mL	0.0364	0.0433	0.0258	–	–	–
[2], partner 0.325 µg/mL	–	–	–	0.988	0.936	0.668
[2], partner 0.65 µg/mL	–	–	–	0.958	0.896	0.596
[2], partner 1.3 µg/mL	–	–	–	0.782	0.74	0.459

Settings	Bliss interaction score
[3]	-0.0161
[4]	0.0335
[5]	-0.0335
[6]	0.0846
